# Reference: PubChem BioAssay (NCI)
#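 Protocol summary: plate cells (96-well), add compound at 5 concentrations, incubate 48 h, interpolate endpoints linearly. The concentration for 50% growth inhibition is given as GI50. Definition used: TGI = concentration required for complete inhibition of growth.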
# Legend:
# Assay in all cases: NCI anticancer screen, dose series, 48 h
# [1] = tested on: UACC-257 melanoma
# [2] = tested on: SN12C renal
# [3] = tested on: UO-31 renal
# [4] = tested on: RPMI-8226 leukemia
# [5] = tested on: NCI-H23 lung
# [6] = tested on: HS 578T breast
# [7] = tested on: T-47D breast
# [8] = tested on: DU-145 prostate
# [9] = tested on: MDA-MB-231 breast
# [10] = tested on: OVCAR-5 ovarian
# [11] = tested on: A549 NSCLC
# [12] = tested on: TK-10 renal
# [13] = tested on: NCI-H226 lung
# [14] = tested on: SK-OV-3 ovarian
# [15] = tested on: SR leukemia
# [16] = tested on: SW-620 colon
# [17] = tested on: NCI-H522 lung
# [18] = tested on: BT-549 breast
# [19] = tested on: HT29 colon
# [20] = tested on: EKVX NSCLC
# [21] = tested on: COLO 205 colon
# [22] = tested on: CAKI-1 renal
# [23] = tested on: PC-3 prostate
# [24] = tested on: MDA-N
# [25] = tested on: MALME-3M melanoma
# [26] = tested on: NCI/ADR-RES ovarian
# [27] = tested on: SK-MEL-2 melanoma
# [28] = tested on: HCT-116 colon
# [29] = tested on: MDA-MB-435
# [30] = tested on: SF-268 CNS
# [31] = tested on: KM12 colon
# [32] = tested on: IGROV1 ovarian
# [33] = tested on: MCF7 breast
# [34] = tested on: 786-0 renal
# [35] = tested on: M14 melanoma
# [36] = tested on: HCT-15 colon
# [37] = tested on: SF-539 CNS
# [38] = tested on: U251 CNS
# [39] = tested on: UACC-62 melanoma
# [40] = tested on: SK-MEL-5 melanoma
# [41] = tested on: SF-295 CNS
# [42] = tested on: ACHN renal
# [43] = tested on: NCI-H460 lung
# [44] = tested on: HL-60(TB) leukemia
# [45] = tested on: RXF 393 renal
# [46] = tested on: OVCAR-8 ovarian
# [47] = tested on: HOP-92 NSCLC
# [48] = tested on: SNB-19 CNS
# [49] = tested on: SNB-75 CNS
# [50] = tested on: OVCAR-3 ovarian
# [51] = tested on: OVCAR-4 ovarian
# [52] = tested on: SK-MEL-28 melanoma
# [53] = tested on: HCC-2998 colon
# [54] = tested on: HOP-62 NSCLC
# [55] = tested on: A498 renal
# [56] = tested on: CCRF-CEM leukemia
# [57] = tested on: LOX IMVI melanoma
# [58] = tested on: K-562 leukemia
# [59] = tested on: MOLT-4 leukemia
compound,measurement,setting,value
Cc1cc2ccc(N)nc2[nH]c1=O,TGI,[1],> 100 µM
same,TGI,[2],> 100 µM
same,TGI,[3],> 100 µM
same,TGI,[4],> 100 µM
same,TGI,[5],> 100 µM
same,TGI,[6],> 100 µM
same,TGI,[7],> 100 µM
same,TGI,[8],> 100 µM
same,TGI,[9],> 100 µM
same,TGI,[10],> 100 µM
same,TGI,[11],> 100 µM
same,TGI,[12],> 100 µM
same,TGI,[13],> 100 µM
same,TGI,[14],> 100 µM
same,TGI,[15],> 100 µM
same,TGI,[16],> 100 µM
same,TGI,[17],> 100 µM
same,TGI,[18],> 100 µM
same,TGI,[19],> 100 µM
same,TGI,[20],> 100 µM
same,TGI,[21],> 100 µM
same,TGI,[22],> 100 µM
same,TGI,[23],> 100 µM
same,TGI,[24],> 100 µM
same,TGI,[25],> 100 µM
same,TGI,[26],> 100 µM
same,TGI,[27],> 100 µM
same,TGI,[28],> 100 µM
same,TGI,[29],> 100 µM
same,TGI,[30],> 100 µM
same,TGI,[31],> 100 µM
same,TGI,[32],> 100 µM
same,TGI,[33],> 100 µM
same,TGI,[34],> 100 µM
same,TGI,[35],> 100 µM
same,TGI,[36],> 100 µM
same,TGI,[37],> 100 µM
same,TGI,[38],> 100 µM
same,TGI,[39],> 100 µM
same,TGI,[40],> 100 µM
same,TGI,[41],> 100 µM
same,TGI,[42],> 100 µM
same,TGI,[43],> 100 µM
same,TGI,[44],> 100 µM
same,TGI,[45],> 100 µM
same,TGI,[46],> 100 µM
same,TGI,[47],> 100 µM
same,TGI,[48],> 100 µM
same,TGI,[49],> 100 µM
CN(C)CCCNC(=O)c1cn2c(ccc3sc4ccccc4c(=O)c32)n1,TGI,[50],24.1 µM
same,TGI,[1],30.3 µM
same,TGI,[2],9.57 µM
same,TGI,[3],24.3 µM
same,TGI,[4],5.36 µM
same,TGI,[5],28.4 µM
same,TGI,[6],36.1 µM
same,TGI,[51],28.1 µM
same,TGI,[7],45.3 µM
same,TGI,[8],25 µM
same,TGI,[9],2.93 µM
same,TGI,[10],22.8 µM
same,TGI,[11],28.3 µM
same,TGI,[12],30.9 µM
same,TGI,[13],36.1 µM
same,TGI,[14],30.7 µM
same,TGI,[52],19.6 µM
same,TGI,[15],30 µM
same,TGI,[16],3.15 µM
same,TGI,[17],32.4 µM
same,TGI,[18],37.8 µM
same,TGI,[19],2.74 µM
same,TGI,[53],25.4 µM
same,TGI,[20],31.6 µM
same,TGI,[54],28 µM
same,TGI,[21],7.95 µM
same,TGI,[22],14.8 µM
same,TGI,[23],9.43 µM
same,TGI,[24],9.88 µM
same,TGI,[25],24.4 µM
same,TGI,[26],8.37 µM
same,TGI,[27],38.4 µM
same,TGI,[28],2.98 µM
same,TGI,[29],30.4 µM
same,TGI,[30],9.96 µM
same,TGI,[31],37.6 µM
same,TGI,[32],27.4 µM
same,TGI,[33],8.48 µM
same,TGI,[34],8.08 µM
same,TGI,[35],28.1 µM
same,TGI,[36],10.7 µM
same,TGI,[55],30.7 µM
same,TGI,[37],33.1 µM
same,TGI,[38],3.22 µM
same,TGI,[56],> 20.1 µM
same,TGI,[39],35.9 µM
same,TGI,[40],3.34 µM
same,TGI,[41],17.4 µM
same,TGI,[42],25.8 µM
same,TGI,[43],2.73 µM
same,TGI,[44],22.2 µM
same,TGI,[45],21.8 µM
same,TGI,[46],10.1 µM
same,TGI,[47],24.7 µM
same,TGI,[48],31.8 µM
same,TGI,[49],30.5 µM
CCOc1cc2c(cc1O)C(N)C[C@@H]1[C@@H]2CC[C@]2(C)[C@@H](O)CC[C@@H]12 (stereo not given in full),GI50,[50],44.9 µM
same,TGI,[50],> 100 µM
same,TGI,[1],> 100 µM
same,GI50,[2],58.6 µM
same,TGI,[2],> 100 µM
same,TGI,[3],> 100 µM
same,TGI,[5],> 100 µM
same,TGI,[6],> 100 µM
same,TGI,[51],> 100 µM
same,TGI,[7],> 100 µM
same,GI50,[8],> 100 µM
same,TGI,[8],> 100 µM
same,TGI,[9],> 100 µM
same,TGI,[10],> 100 µM
same,TGI,[12],> 100 µM
same,TGI,[13],> 100 µM
same,TGI,[52],> 100 µM
same,TGI,[15],63 µM
same,TGI,[16],> 100 µM
same,TGI,[57],> 100 µM
same,TGI,[17],> 100 µM
same,TGI,[18],> 100 µM
same,TGI,[19],> 100 µM
same,TGI,[53],> 100 µM
same,TGI,[20],> 100 µM
same,TGI,[54],> 100 µM
same,TGI,[58],73.2 µM
same,TGI,[21],> 100 µM
same,TGI,[22],> 100 µM
same,TGI,[23],> 100 µM
same,TGI,[24],> 100 µM
same,TGI,[26],> 100 µM
same,TGI,[27],> 100 µM
same,GI50,[28],39.7 µM
same,TGI,[28],> 100 µM
same,GI50,[29],16.2 µM
same,TGI,[29],52.4 µM
same,TGI,[30],> 100 µM
same,TGI,[31],> 100 µM
same,TGI,[59],> 100 µM
same,TGI,[32],> 100 µM
same,TGI,[33],> 100 µM
same,TGI,[34],> 100 µM
same,TGI,[35],98.4 µM
same,TGI,[36],> 100 µM
same,TGI,[55],> 100 µM
same,TGI,[38],> 100 µM
same,TGI,[56],71.6 µM
same,GI50,[39],18.7 µM
same,TGI,[39],> 100 µM
same,TGI,[40],> 100 µM
same,TGI,[41],> 100 µM
same,TGI,[42],> 100 µM
same,TGI,[43],> 100 µM
same,TGI,[44],46.5 µM
same,TGI,[45],> 100 µM
same,TGI,[46],> 100 µM
same,TGI,[47],> 100 µM
same,TGI,[48],> 100 µM
same,TGI,[49],95.4 µM
Cn1cc(NC(=O)Nc2cc(C(=O)Nc3cc(C(=O)Nc4cc(S(=O)(=O)O)c5cc(S(=O)(=O)O)cc(S(=O)(=O)O)c5c4)n(C)c3)n(C)c2)cc1C(=O)Nc1cc(C(=O)Nc2cc(S(=O)(=O)O)c3cc(S(=O)(=O)O)cc(S(=O)(=O)O)c3c2)n(C)c1,TGI,[50],> 100 µM
same,TGI,[1],> 100 µM
same,TGI,[2],> 100 µM
same,TGI,[3],> 100 µM
same,TGI,[4],> 100 µM
same,TGI,[5],> 100 µM
same,TGI,[6],> 100 µM
same,TGI,[51],> 100 µM
same,TGI,[7],> 100 µM
same,TGI,[8],> 100 µM
same,TGI,[9],> 100 µM
same,TGI,[10],> 100 µM
same,TGI,[11],> 100 µM
same,TGI,[12],> 100 µM
same,TGI,[13],> 100 µM
same,TGI,[14],> 100 µM
same,TGI,[52],> 100 µM
same,TGI,[15],> 100 µM
same,TGI,[16],> 100 µM
same,TGI,[17],> 100 µM
same,TGI,[18],> 100 µM
same,TGI,[19],> 100 µM
same,TGI,[53],> 100 µM
same,TGI,[20],> 100 µM
same,TGI,[54],> 100 µM
same,TGI,[58],> 100 µM
same,TGI,[21],> 100 µM
same,TGI,[23],> 100 µM
same,TGI,[24],> 100 µM
same,TGI,[25],> 100 µM
same,TGI,[26],> 100 µM
same,TGI,[28],> 100 µM
same,TGI,[29],> 100 µM
same,TGI,[30],> 100 µM
same,TGI,[31],> 100 µM
same,TGI,[59],> 100 µM
same,TGI,[32],> 100 µM
same,TGI,[33],> 100 µM
same,TGI,[34],> 100 µM
same,TGI,[35],> 100 µM
same,TGI,[36],> 100 µM
same,TGI,[37],> 100 µM
same,TGI,[38],> 100 µM
same,TGI,[56],> 100 µM
same,TGI,[39],> 100 µM
same,TGI,[40],> 100 µM
same,TGI,[41],> 100 µM
same,TGI,[42],> 100 µM
same,TGI,[43],> 100 µM
same,TGI,[44],> 100 µM
same,TGI,[45],> 100 µM
same,TGI,[46],> 100 µM
same,TGI,[47],> 100 µM
same,TGI,[48],> 100 µM
same,TGI,[49],> 100 µM
